Source: PMC4865847, “Putative histidine kinase inhibitors with antibacterial effect against multi-drug resistant clinical isolates identified by in vitro and in silico screens” (Scientific Reports, 2016)
Values after ≈ are worked out from the molar mass of the structure shown. Read-outs that look alike come from different tables or passages of the source.

Experiments:
[1] = target: T1, E. coli PhoR (PhoR^E) (Escherichia coli, UniProt P08400); test: In vitro autophosphorylation kinase assay with γ-32P-ATP, PhoR^E; assay type: biochemical; conditions: for IC50: autophosphorylation, one time point (30 sec), 10% DMSO; for inhibition at 2000 µM: 2 mM, 30 sec, compared to negative control
T1 construct: The catalytic portion (DHp and CA domain) of E. coli PhoR (PhoR^E); made in house; host or cells: E. coli RIL
T1 sequence (P08400 210-425): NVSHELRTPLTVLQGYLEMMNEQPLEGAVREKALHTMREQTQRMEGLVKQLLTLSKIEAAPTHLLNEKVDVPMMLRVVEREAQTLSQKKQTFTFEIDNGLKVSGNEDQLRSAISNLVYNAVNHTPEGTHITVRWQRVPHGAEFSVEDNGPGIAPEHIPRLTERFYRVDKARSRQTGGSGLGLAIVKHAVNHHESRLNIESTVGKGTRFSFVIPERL
Procedure: (§1) To evaluate the inhibitory capacity of selected hits from DSF, SBVS and LBSS in vitro autophosphorylation kinase assays with γ-^32P-ATP were performed as previously described. Ligands were dissolved in 100% DMSO. […] Controls lacking ligands contained an equal concentration of DMSO. Inhibition of autophosphorylation was determined by incubating 0.12 mg/ml (≈4 μM) HK and up to 20 mM fragment in kinase buffer (50 mM Tris HCl, pH 8.5, 50 mM KCl, 5 mM MgCl2, 0.5 mM EDTA and 0.1 mM DTT). Autophosporylation reactions were initiated by addition of 0.1 μCi/μl γ-^32P-ATP containing from 0.03 to 0.06 μM ATP (final concentrations). Autophosphorylation was quenched with 2xSDS-PAGE sample buffer supplemented with 50 mM EDTA. […] After electrophoresis, the bottoms of the gels were removed to lower the background from the unincorporated radiolabeled ATP. Gels were dried without staining on a Bio-Rad Gel Air drying system and the phosphorylated protein was quantified by phosphor-imaging. Prism GraphPad was used for curve fitting and statistical analysis.

[2] = target: T2, S. pneumoniae WalK (Streptococcus pneumoniae, UniProt Q8DPL8); test: In vitro autophosphorylation kinase assay with γ-32P-ATP, WalK; assay type: biochemical; conditions: autophosphorylation, one time point (30 sec), 10% DMSO
T2 construct: WalK (amino acids from 208 to 449); N-terminal His6-3C site of vector pOPINF (own knowledge of the vector); made in house; host or cells: E. coli RIL
T2 sequence (Q8DPL8 208-449): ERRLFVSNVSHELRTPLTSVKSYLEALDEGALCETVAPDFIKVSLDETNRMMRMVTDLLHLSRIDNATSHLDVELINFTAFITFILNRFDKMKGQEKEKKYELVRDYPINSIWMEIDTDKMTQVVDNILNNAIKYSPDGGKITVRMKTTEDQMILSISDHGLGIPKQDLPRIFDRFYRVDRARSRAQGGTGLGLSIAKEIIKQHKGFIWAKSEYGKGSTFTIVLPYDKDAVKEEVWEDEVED
Procedure: as §1

[3] = tested on: Escherichia coli; test: Antibacterial susceptibility testing (MIC/MBC), E. coli; assay type: cell-based; conditions: Escherichia coli; for MIC: read-out: MIC E. coli CFT 073; for MBC: read-out: MBC E. coli CFT 073
Procedure: (§2) Minimal inhibitory concentrations (MICs) were determined following a standard double-dilution method. […] For S. pneumoniae MICs were determined by adapting the standard double-dilution method to anaerobic conditions and of this microorganism (use of Todd Hewitt Yeast extract with 200 U/mL of catalase and continuous monitoring of growth).

[4] = tested on: Staphylococcus aureus; test: Antibacterial susceptibility testing (MIC/MBC), S. aureus; assay type: cell-based; conditions: Staphylococcus aureus
Procedure: as §2

[5] = tested on: Staphylococcus epidermidis; test: Antibacterial susceptibility testing (MIC/MBC), S. epidermidis; assay type: cell-based; conditions: Staphylococcus epidermidis
Procedure: as §2

[6] = target: S. aureus PhoR (PhoR^S) (Staphylococcus aureus, UniProt Q2FXN7); test: In vitro autophosphorylation kinase assay with γ-32P-ATP, PhoR^S; assay type: biochemical; conditions: for IC50: autophosphorylation, one time point (30 sec), 10% DMSO; for inhibition at 2000 µM: read-out: inhibition of PhoR^S autophosphorylation
Chain of S. aureus PhoR (PhoR^S) (Q2FXN7 entry or part of it): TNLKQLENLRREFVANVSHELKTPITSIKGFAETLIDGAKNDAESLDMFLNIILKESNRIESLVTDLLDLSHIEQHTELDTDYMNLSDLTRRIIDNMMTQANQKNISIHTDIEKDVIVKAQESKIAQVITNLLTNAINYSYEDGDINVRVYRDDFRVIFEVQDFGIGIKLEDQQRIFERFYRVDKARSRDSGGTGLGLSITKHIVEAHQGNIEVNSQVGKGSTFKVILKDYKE
Procedure: To evaluate the inhibitory capacity of selected hits from DSF, SBVS and LBSS in vitro autophosphorylation kinase assays with γ-^32P-ATP were performed as previously described. Ligands were dissolved in 100% DMSO. […] Controls lacking ligands contained an equal concentration of DMSO. Inhibition of autophosphorylation was determined by incubating 0.12 mg/ml (≈4 μM) HK and up to 20 mM fragment in kinase buffer (50 mM Tris HCl, pH 8.5, 50 mM KCl, 5 mM MgCl2, 0.5 mM EDTA and 0.1 mM DTT). Autophosporylation reactions were initiated by addition of 0.1 μCi/μl γ-^32P-ATP containing from 0.03 to 0.06 μM ATP (final concentrations). Autophosphorylation was quenched with 2xSDS-PAGE sample buffer supplemented with 50 mM EDTA. Samples were applied without heating to 15% (w/v) Tris-glycine SDS-polyacrylamide gels. After electrophoresis, the bottoms of the gels were removed to lower the background from the unincorporated radiolabeled ATP. Gels were dried without staining on a Bio-Rad Gel Air drying system and the phosphorylated protein was quantified by phosphor-imaging. Prism GraphPad was used for curve fitting and statistical analysis.

[7] = DSM20231, strain DSM 20231, read-out: MIC S. aureus DSM 20231
[8] = DSM20044, strain DSM 20044, read-out: MIC S. epidermidis DSM 20044
[9] = DSM20231, read-out: MBC S. aureus DSM 20231
[10] = DSM20231, read-out: MIC S. aureus DSM 20231
[11] = DSM20044, read-out: MIC S. epidermidis DSM 20044

Row | SMILES | IC50 ([1]; IC50 PhoR^E) [µM] | MIC ([3]; strain CFT 073) [µg/mL] | MIC [4, 7] [µg/mL] | MIC [5, 8] [µg/mL] | IC50 ([6]; IC50 PhoR^S) [µM] | also measured
1 | Nc1nnc(-c2ccc(Br)cc2)o1 [F1.5] | > 2000 | > 500 | > 500 | > 500 |  | IC50 ([2]; IC50 WalK): > 2000 µM
2 | Nc1nc(-c2ccc(O)cc2)cs1 [F1.1] |  |  |  |  |  | IC50 ([1]; read-out: IC50 PhoR^E): > 2000 µM; IC50 ([2]; read-out: IC50 WalK): > 2000 µM; MBC [3]: > 500 µg/mL; MBC [4, 9]: > 500 µg/mL
3 | CC(=O)Nc1cccc(Cc2cccc(NC(C)=O)c2)c1 [S1.4] | > 2000 | > 500 | > 500 | > 500 | > 2000 | 
4 | CC(=O)c1cccc(NC(=O)N(C)Cc2ccccc2)c1 [S1.25] | > 2000 | > 500 | > 500 | > 500 | > 2000 | 
5 | Nc1ncc(-c2ccc(Br)cc2)s1 [F1.4] | > 2000 | > 500 | > 500 | > 500 |  | IC50 ([2]; IC50 WalK): > 2000 µM
6 | CC(=O)Nc1ccc(NC(=O)c2cccc(F)c2)cc1 [S1.3] | > 2000 | > 500 | > 500 | > 500 | > 2000 | 
7 | CC(=O)Nc1ccc(-c2ccc(F)cc2)cc1 [S1.2] | < 2000 | > 500 | > 500 | > 500 |  | IC50 ([6]; read-out: IC50 PhoR^S): < 2000 µM; inhibition at 2000 µM [6]: > 75%; inhibition at 2000 µM [1]: > 75%
8 | CC(=O)Nc1ccc2c(c1)Cc1cc(Br)ccc1-2 [S1.20] |  |  |  |  | > 2000 | IC50 ([1]; read-out: IC50 PhoR^E): > 2000 µM; MIC [3]: > 500 µg/mL; MIC [4, 10]: > 500 µg/mL; MIC [5, 11]: > 500 µg/mL
9 | Nc1nc(-c2ccc(Cl)cc2)cs1 [F1.2] | > 2000 | > 500 | > 500 | > 500 |  | IC50 ([2]; IC50 WalK): > 2000 µM
10 | CC(=O)Nc1ccc[n+](CC(=O)c2ccc(F)cc2)c1 [S1.5] | > 2000 | > 500 | > 500 | > 500 | > 2000 | 
11 | CC(=O)Nc1cccc(S(=O)(=O)c2cccc(NC(C)=O)c2)c1 [S1.9] | > 2000 | > 500 | > 500 | > 500 | > 2000 | 
12 | COc1cc(NCc2ccccc2)ccc1NC(C)=O [S1.18] | > 2000 | > 500 | > 500 | > 500 | > 2000 | 
13 | CCc1ccc2[nH]c3ccccc3c2c1 [F2.9] | < 2000 | > 500 | > 500 | > 500 |  | inhibition at 2000 µM [1]: > 50%; IC50 ([2]; IC50 WalK): > 2000 µM; MBC ([4]; DSM20231, strain DSM 20231, read-out: MBC S. aureus DSM 20231): > 500 µg/mL
14 | CC(=O)NC(Cc1ccccc1)C(=O)Nc1cccc(C)c1 (stereo not shown) [S1.19] | > 2000 | > 500 | > 500 | > 500 | > 2000 | 
15 | Cc1ccc(-c2csc(N)n2)cc1 [F1.3] | > 2000 | > 500 | > 500 | 500 (≈ 2630 µM) |  | IC50 ([2]; IC50 WalK): > 2000 µM; MBC ([5]; DSM20044, strain DSM 20044): 500 µg/mL (≈ 2630 µM)
16 | CC(=O)Nc1cccc(OCc2ccc([N+](=O)[O-])cc2)c1 [S1.8] | > 2000 | > 500 | > 500 | > 500 | > 2000 | 
17 | CC(C)(C)c1ccc(OCc2c[nH]cn2)cc1 [F1.10] | > 2000 | > 500 | > 500 | > 500 |  | IC50 ([2]; IC50 WalK): > 2000 µM

Row | SMILES | IC50 ([1]; IC50 PhoR^E) [µM] | MIC ([3]; strain CFT 073) [µg/mL] | MIC [4, 7] [µg/mL] | MIC [5, 8] [µg/mL] | IC50 ([6]; IC50 PhoR^S) [µM] | also measured
18 | O=c1c2ccccc2[nH]c2ccc(O)cc12 [F2.2] | < 2000 | > 500 | > 500 | > 500 |  | inhibition at 2000 µM [1]: > 50%; IC50 ([2]; IC50 WalK): > 2000 µM
19 | CCn1c2ccccc2c2cc(NC(C)=O)ccc21 [S1.24] | > 2000 | > 500 | > 500 | > 500 | > 2000 | 
20 | O=C(NCc1cccc(Cl)c1)Nc1ccccc1 [S1.22] | > 2000 | > 500 | > 500 | > 500 | > 2000 | 
21 | CCN(Cc1ccc(C(=O)OC)cc1)c1cccc(NC(C)=O)c1 [S1.1] | > 2000 | > 500 | > 500 | > 500 | > 2000 | 
22 | Cn1c2ccccc2c2ccccc21 [F2.6] |  |  |  |  |  | IC50 ([1]; read-out: IC50 PhoR^E): > 2000 µM; IC50 ([2]; read-out: IC50 WalK): > 2000 µM; MBC [3]: 500 µg/mL (≈ 2760 µM); MIC [3]: > 500 µg/mL; MIC [4, 10]: > 500 µg/mL; MIC [5, 11]: > 500 µg/mL
23 | CC(=O)Nc1ccc2c(c1)C(=Nc1ccc(F)cc1)c1ccccc1-2 [S1.10] | > 2000 | > 500 | > 500 | > 500 | > 2000 | 
24 | CC(=O)Nc1cccc(OCOc2ccc([N+](=O)[O-])cc2)c1 [S1.16] | > 2000 | > 500 | > 500 | > 500 | > 2000 | 
25 | CCC(c1cccc(Br)c1)C(C(C)=O)c1ccc(OC)cc1 (stereo not shown) [S1.23] | > 2000 | > 500 | > 500 | > 500 | > 2000 | 
26 | CC(=O)Nc1ccc(C(O)c2ccc(NC(C)=O)cc2)cc1 [S1.6] | > 2000 | > 500 | > 500 | > 500 | > 2000 | 
27 | c1ccc2c(c1)[nH]c1ccccc12 [F2.5] |  |  |  |  |  | IC50 ([1]; read-out: IC50 PhoR^E): > 2000 µM; IC50 ([2]; read-out: IC50 WalK): > 2000 µM; MIC [3]: > 500 µg/mL; MIC [4, 10]: > 500 µg/mL; MIC [5, 11]: > 500 µg/mL
28 | CC(=O)Nc1ccc(C(=O)C(O)c2ccc(NC(C)=O)cc2)cc1 (stereo not shown) [S1.12] | > 2000 | > 500 | > 500 | > 500 | > 2000 | 
29 | CC(=O)Nc1cccc(OCc2cccc([N+](=O)[O-])c2)c1 [S1.17] | > 2000 | > 500 | > 500 | > 500 | > 2000 | 
30 | COc1ccc(-c2csc(N)n2)cc1OC [F1.9] | > 2000 | > 500 | > 500 | > 500 |  | IC50 ([2]; IC50 WalK): > 2000 µM
31 | c1ccc2[nH]ccc2c1 [F2.7] |  |  |  |  |  | IC50 ([1]; read-out: IC50 PhoR^E): > 2000 µM; IC50 ([2]; read-out: IC50 WalK): > 2000 µM; MIC [3]: 500 µg/mL (≈ 4270 µM); MBC [4, 9]: > 500 µg/mL; MIC [4, 10]: 500 µg/mL (≈ 4270 µM); MIC [5, 11]: > 500 µg/mL
32 | CC(=O)Nc1cccc(C=Cc2ccc([N+](=O)[O-])cc2)c1 [S1.11] | < 2000 | > 500 | > 500 | > 500 |  | IC50 ([6]; read-out: IC50 PhoR^S): < 2000 µM; inhibition at 2000 µM [6]: > 75%; inhibition at 2000 µM [1]: > 75%
33 | CC(C)(C)c1ccc(NS(=O)(=O)c2ccc(N)cc2)cc1 [S1.15] | > 2000 | > 500 | > 500 | > 500 |  | IC50 ([6]; read-out: IC50 PhoR^S): < 2000 µM; inhibition at 2000 µM [6]: > 75%; inhibition at 2000 µM [1]: > 40%
34 | Brc1ccc(C2=CSC3=NCCN23)cc1 [F1.7] | > 2000 | > 500 | > 500 | > 500 |  | IC50 ([2]; IC50 WalK): > 2000 µM
